Measured values: patent publication US5922680A, “Stabilized composition for oral administration of peptides” (Ferring, B.V., priority 1997, dated 1999)

Conditions: pH 6.5
Method: Human gastro-intestinal juice was obtained from healthy male volunteers who had been fasting for 8 h. A tube was introduced intranasally after local anaesthesia with xylocaine, and gastric juice was collected. Thereafter one standardized meal was given 1 h before sampling of duodenal and distal jejunum juice and another the next morning before the collection of distal ileal juice. After centrifugation the gastric and intestinal juices were frozen in aliquots of 1 ml and stored at -20° C. […] The peptide or peptide analog (10 μl of 10 mM peptide in 0.9% aqueous NaCl) was added to 190 μl of undiluted juice at 37° C. Aliquots of 25 μl were withdrawn at intervals and mixed with 100 μl acetone to stop the reaction. After centrifugation for 10 min at 10,000 g, 10 μl of the supernatant was analyzed by reversed phase HPLC. […] Analysis was carried out in a Varian 5000 HPLC analyzer equipped with a UV-detector (220 nm). Column Bondapak TM C18 (3.9×300 mm), eluant MeOH/0.025 M NH4 Ac (isocratic conditions), flow rate 1 ml/min. […] Protein: Bio-Rad protein assay. pH: Orion model SA720; pH-paper Merck (Darmstadt), range 4.0-7.0.

DDAVP degraded (to about 50%): about 50%
SMILES: NC(=O)CC[C@@H]1NC(=O)[C@H](Cc2ccccc2)NC(=O)[C@H](Cc2ccc(O)cc2)NC(=O)CCSSC[C@@H](C(=O)N2CCC[C@H]2C(=O)N[C@H](CCCN=C(N)N)C(=O)NCC(N)=O)NC(=O)[C@H](CC(N)=O)NC1=O [DDAVP, Mpa-Tyr-Phe-Gln-Asn-Cys-Pro-D-Arg-Gly-GlyNH2]
